Data taken from PubChem BioAssay AID1259407 (Chemical Carcinogenesis Research Information System (CCRIS), 2018).
Calls of active or inactive are those of the source. The rule behind the calls is not given here.

System: CCRIS mutagenicity, Ames/micronucleus/aberration tests
Assay: CCRIS mutagenicity studies
[1] = Test System: AMES SALMONELLA TYPHIMURIUM, Strain/Indicator: TA98, Metabolic Activation: NONE, Method: STANDARD PLATE
[2] = Test System: AMES SALMONELLA TYPHIMURIUM, Strain/Indicator: TA100, Metabolic Activation: NONE, Method: STANDARD PLATE
[3] = Test System: AMES SALMONELLA TYPHIMURIUM, Strain/Indicator: TA100, Metabolic Activation: RAT, LIVER, S-9, AROCLOR 1254, Method: STANDARD PLATE
[4] = Test System: AMES SALMONELLA TYPHIMURIUM, Strain/Indicator: TA1535, Metabolic Activation: NONE, Method: STANDARD PLATE

C1N2CN3CN1CN(C2)C3
mutagenic call (End Point: In vitro chromosomal aberrations, Test System: Chinese hamster lung (CHL/IU) cells, Metabolic Activation: Rat, Liver, S9, Phenobarbital and 5,6-benzoflavone): inactive; negative | mutagenic call (Test System: AMES SALMONELLA TYPHIMURIUM, Strain/Indicator: TA97, Metabolic Activation: HAMSTER, LIVER, S-9, AROCLOR 1254 (5 OR 30%), Method: PREINCUBATION): inactive; negative | mutagenic call (Test System: AMES SALMONELLA TYPHIMURIUM, Strain/Indicator: TA97, Metabolic Activation: HAMSTER, LIVER, S-9, AROCLOR 1254 (10%), Method: PREINCUBATION): inactive; negative | mutagenic call (Test System: AMES SALMONELLA TYPHIMURIUM, Strain/Indicator: TA97, Metabolic Activation: NONE, Method: PREINCUBATION): inactive; negative | mutagenic call (Test System: AMES SALMONELLA TYPHIMURIUM, Strain/Indicator: TA97, Metabolic Activation: RAT, LIVER, S-9, AROCLOR 1254 (10%), Method: PREINCUBATION): inactive; negative | mutagenic call (Test System: AMES SALMONELLA TYPHIMURIUM, Strain/Indicator: TA97, Metabolic Activation: RAT, LIVER, S-9, AROCLOR 1254 (30%), Method: PREINCUBATION): inactive; negative | mutagenic call (Test System: AMES SALMONELLA TYPHIMURIUM, Strain/Indicator: TA98, Metabolic Activation: HAMSTER, LIVER, S-9, AROCLOR 1254 (10 OR 30%), Method: PREINCUBATION): inactive; negative | mutagenic call (Test System: AMES SALMONELLA TYPHIMURIUM, Strain/Indicator: TA98, Metabolic Activation: RAT, LIVER, S-9, AROCLOR 1254 (10 OR 30%), Method: PREINCUBATION): inactive; negative | mutagenic call (Test System: AMES SALMONELLA TYPHIMURIUM, Strain/Indicator: TA98, Metabolic Activation: RAT, LIVER, S-9, KC 500, Method: PREINCUBATION): active; positive | mutagenic call (Test System: AMES SALMONELLA TYPHIMURIUM, Strain/Indicator: TA98, Metabolic Activation: RAT, LIVER, S-9, PCB, Method: PREINCUBATION): inactive; negative | mutagenic call (Test System: AMES SALMONELLA TYPHIMURIUM, Strain/Indicator: TA100, Metabolic Activation: HAMSTER, LIVER, S-9, AROCLOR 1254 (10 OR 30%), Method: PREINCUBATION): inactive; negative | mutagenic call (Test System: AMES SALMONELLA TYPHIMURIUM, Strain/Indicator: TA100, Metabolic Activation: NONE, Method: PREINCUBATION): inactive; negative | mutagenic call (Test System: AMES SALMONELLA TYPHIMURIUM, Strain/Indicator: TA100, Metabolic Activation: RAT, LIVER, S-9, AROCLOR 1254 (10 OR 30%), Method: PREINCUBATION): inactive; negative | mutagenic call (Test System: AMES SALMONELLA TYPHIMURIUM, Strain/Indicator: TA100, Metabolic Activation: RAT, LIVER, S-9, KC 500, Method: PREINCUBATION): active; positive | mutagenic call (Test System: AMES SALMONELLA TYPHIMURIUM, Strain/Indicator: TA100, Metabolic Activation: RAT, LIVER, S-9, PCB, Method: PREINCUBATION): inactive; negative | mutagenic call (Test System: AMES SALMONELLA TYPHIMURIUM, Strain/Indicator: TA1535, Metabolic Activation: HAMSTER, LIVER, S-9, AROCLOR 1254 (10 OR 30%), Method: PREINCUBATION): inactive; negative | mutagenic call (Test System: AMES SALMONELLA TYPHIMURIUM, Strain/Indicator: TA1535, Metabolic Activation: NONE, Method: PREINCUBATION): inactive; negative | mutagenic call (Test System: AMES SALMONELLA TYPHIMURIUM, Strain/Indicator: TA1535, Metabolic Activation: RAT, LIVER, S-9, AROCLOR 1254 (10 OR 30%), Method: PREINCUBATION): inactive; negative | mutagenic call (Test System: AMES SALMONELLA TYPHIMURIUM, Strain/Indicator: TA1535, Metabolic Activation: RAT, LIVER, S-9, KC 500, Method: PREINCUBATION): inactive; negative | mutagenic call (Test System: AMES SALMONELLA TYPHIMURIUM, Strain/Indicator: TA1537, Metabolic Activation: HAMSTER, LIVER, S-9, AROCLOR 1254 (10%), Method: PREINCUBATION): inactive; negative | mutagenic call (Test System: AMES SALMONELLA TYPHIMURIUM, Strain/Indicator: TA1537, Metabolic Activation: NONE, Method: PREINCUBATION): inactive; negative | mutagenic call (Test System: AMES SALMONELLA TYPHIMURIUM, Strain/Indicator: TA1537, Metabolic Activation: RAT, LIVER, S-9, AROCLOR 1254 (10%), Method: PREINCUBATION): inactive; negative | mutagenic call (Test System: AMES SALMONELLA TYPHIMURIUM, Strain/Indicator: TA1537, Metabolic Activation: RAT, LIVER, S-9, KC 500, Method: PREINCUBATION): inactive; negative | mutagenic call (Test System: AMES SALMONELLA TYPHIMURIUM, Strain/Indicator: TA1538, Metabolic Activation: HAMSTER, LIVER, S-9, AROCLOR 1254 (10 OR 30%), Method: PREINCUBATION): inactive; negative | mutagenic call (Test System: AMES SALMONELLA TYPHIMURIUM, Strain/Indicator: TA1538, Metabolic Activation: NONE, Method: PREINCUBATION): inactive; negative | mutagenic call (Test System: AMES SALMONELLA TYPHIMURIUM, Strain/Indicator: TA1538, Metabolic Activation: RAT, LIVER, S-9, AROCLOR 1254 (10 OR 30%), Method: PREINCUBATION): inactive; negative | mutagenic call (Test System: AMES SALMONELLA TYPHIMURIUM, Strain/Indicator: TA1538, Metabolic Activation: RAT, LIVER, S-9, KC 500, Method: PREINCUBATION): inactive; negative | mutagenic call (Test System: Ames Salmonella typhimurium, Strain/Indicator: TA98, Metabolic Activation: None, Method: Preincubation): inactive; negative | mutagenic call (Test System: Ames Salmonella typhimurium, Strain/Indicator: TA98, Metabolic Activation: Rat, Liver, S9, Sodium phenobarbital and 5,6-benzoflavone (10%), Method: Preincubation): inactive; negative | mutagenic call (Test System: Ames Salmonella typhimurium, Strain/Indicator: TA100, Metabolic Activation: None, Method: Preincubation): inactive; negative | mutagenic call (Test System: Ames Salmonella typhimurium, Strain/Indicator: TA100, Metabolic Activation: Rat, Liver, S9, Sodium phenobarbital and 5,6-benzoflavone (10%), Method: Preincubation): inactive; negative | mutagenic call (Test System: Ames Salmonella typhimurium, Strain/Indicator: TA1535, Metabolic Activation: None, Method: Preincubation): inactive; negative | mutagenic call (Test System: Ames Salmonella typhimurium, Strain/Indicator: TA1535, Metabolic Activation: Rat, Liver, S9, Sodium phenobarbital and 5,6-benzoflavone (10%), Method: Preincubation): inactive; negative | mutagenic call (Test System: Ames Salmonella typhimurium, Strain/Indicator: TA1537, Metabolic Activation: None, Method: Preincubation): inactive; negative | mutagenic call (Test System: Ames Salmonella typhimurium, Strain/Indicator: TA1537, Metabolic Activation: Rat, Liver, S9, Sodium phenobarbital and 5,6-benzoflavone (10%), Method: Preincubation): inactive; negative | mutagenic call (Test System: E. COLI, Strain/Indicator: WP2 UVRA, Metabolic Activation: NONE, Method: PREINCUBATION): inactive; negative | mutagenic call (Test System: E. COLI, Strain/Indicator: WP2 UVRA, Metabolic Activation: RAT, LIVER, S-9, KC 500, Method: PREINCUBATION): inactive; negative | mutagenic call (Test System: E. coli, Strain/Indicator: WP2uvrA/pKM101, Metabolic Activation: None, Method: Preincubation): inactive; negative | mutagenic call (Test System: E. coli, Strain/Indicator: WP2uvrA/pKM101, Metabolic Activation: Rat, Liver, S9, Sodium phenobarbital and 5,6-benzoflavone (10%), Method: Preincubation): inactive; negative

O=C(c1ccccc1)C1OC1c1ccccc1 (stereo not given)
mutagenic call [1]: inactive; negative | mutagenic call (Test System: AMES SALMONELLA TYPHIMURIUM, Strain/Indicator: TA98, Metabolic Activation: RAT, LIVER, S-9, AROCLOR 1254, Method: STANDARD PLATE): inactive; negative | mutagenic call [2]: active; positive | mutagenic call [3]: active; positive

O=NN(CCCl)C(=O)NCCCl
mutagenic call (End Point: In vitro micronucleus, Test System: Human lymphoblastoid TK6 cells, Metabolic Activation: None): active; positive (not dose related) | mutagenic call [4]: active; positive | mutagenic call (Test System: CHINESE HAMSTER OVARY, Strain/Indicator: D422 (APRT), Metabolic Activation: NONE, Method: REPLATING): active; positive | mutagenic call (Test System: CHINESE HAMSTER V-79, Strain/Indicator: V-79/6-THIOGUANINE, Metabolic Activation: NONE, Method: STANDARD PLATE): active; positive

C=C(C)C1CCC2(C)OC2C1 (stereo not given)
mutagenic call [2]: inactive; negative | mutagenic call [3]: inactive; negative | mutagenic call [4]: inactive; negative | mutagenic call (Test System: AMES SALMONELLA TYPHIMURIUM, Strain/Indicator: TA1535, Metabolic Activation: RAT, LIVER, S-9, AROCLOR 1254, Method: STANDARD PLATE): inactive; negative | mutagenic call (Test System: UDS RAT HEPATOCYTES, Strain/Indicator: THY INCORP, Metabolic Activation: NONE): inactive; negative

O=[N+]([O-])c1c2c(cc3ccccc13)C=C[C@@H](O)[C@@H]2O
mutagenic call [1]: inactive; negative | mutagenic call (Test System: AMES SALMONELLA TYPHIMURIUM, Strain/Indicator: TA98, Metabolic Activation: RAT, LIVER, S-9, Method: STANDARD PLATE): inactive; negative | mutagenic call [2]: inactive; negative | mutagenic call (Test System: AMES SALMONELLA TYPHIMURIUM, Strain/Indicator: TA100, Metabolic Activation: RAT, LIVER, S-9, Method: STANDARD PLATE): inactive; negative

Nc1ccn([C@@H]2CS[C@H](CO)O2)c(=O)n1
mutagenic call (Test System: Human TK6 Lymphoblastoid Cells, Strain/Indicator: HPRT, Metabolic Activation: None, Method: Standard Plate): active; positive | mutagenic call (Test System: Human TK6 Lymphoblastoid Cells, Strain/Indicator: TK, Metabolic Activation: None, Method: Standard Plate): active; positive | mutagenic call (Test System: Mouse lymphoma, Strain/Indicator: L5178Y (tk+/tk-), Metabolic Activation: None, Method: Suspension/plate): inactive; negative | mutagenic call (Test System: Mouse lymphoma, Strain/Indicator: L5178Y (tk+/tk-), Metabolic Activation: Rat, Liver, S-9, Aroclor 1254, Method: Suspension/plate): inactive; negative
